Source: ChEMBL document CHEMBL3864173, “Design and Synthesis of Novel Macrocyclic Mer Tyrosine Kinase Inhibitors” (ACS Med Chem Lett, 2016)

Experiment: Solubility of the compound at pH 7.4
Format: physicochemical
Details: buffer

CCCCNc1ncc2c(-c3ccc(CN4CCN(C)CC4)cc3)cn([C@H]3CC[C@H](O)CC3)c2n1.Cl
solubility: 47 mg/mL
